Assay results published in ChEMBL document CHEMBL5537150, “Synthesis of melampomagnolide B derivatives as potential anti-Triple Negative Breast Cancer agents” (Eur J Med Chem, 2024).
Active and inactive are the calls of the source. No cut-off for these calls is given here.

How the values were obtained:
[1] = system: MDA-MB-231; experiment: Antiproliferative activity against human MDA-MB-231 cells assessed as inhibition of cell growth incubated for 72 hrs by MTT assay; format: functional, cell-based; conditions: MDA-MB-231, 72 h
[2] = system: MDA-MB-231; experiment: Antimigratory activity in human MDA-MB-231 cells assessed as downregulation of N-cadherin protein expression incubated for 48 hrs by Western blotting analysis; format: functional, cell-based
[3] = system: MDA-MB-468; experiment: Induction of apoptosis in human MDA-MB-468 cells at 0.2 uM incubated for 48 hrs by annexin-V-APC/PI staining based flow cytometric analysis (reference value: 5.38 +/- 1.63 %); format: functional
[4] = system: MDA-MB-231; experiment: Induction of apoptosis in human MDA-MB-231 cells assessed as downregulation of MCL-1 protein expression incubated for 48 hrs by Western blotting analysis; format: functional, cell-based
[5] = system: MDA-MB-231; experiment: Induction of apoptosis in human MDA-MB-231 cells assessed as downregulation of BCL-xl protein expression incubated for 48 hrs by Western blotting analysis; format: functional, cell-based
[6] = system: MDA-MB-231; experiment: Induction of apoptosis in human MDA-MB-231 cells assessed as upregulation of Bax protein expression incubated for 48 hrs by Western blotting analysis; format: functional, cell-based
[7] = system: MDA-MB-468; experiment: Induction of cell cycle arrest in human MDA-MB-468 cells assessed as decrease in accumulation of cells at G1 phase at 0.2 to 2 uM incubated for 48 hrs by RNase/PI staining based flow cytometric analysis; format: functional; conditions: dose 0.2-2 µM
[8] = system: MDA-MB-468; experiment: Induction of cell cycle arrest in human MDA-MB-468 cells assessed as downregulation of Cdc25c protein expression incubated for 48 hrs by Western blotting analysis; format: functional, cell-based
[9] = system: MDA-MB-468; experiment: Induction of cell cycle arrest in human MDA-MB-468 cells assessed as downregulation of Cyclin B1 protein expression incubated for 48 hrs by Western blotting analysis; format: functional, cell-based
[10] = system: MDA-MB-468; experiment: Induction of cell cycle arrest in human MDA-MB-468 cells assessed as downregulation of Cyclin E1 protein expression incubated for 48 hrs by Western blotting analysis; format: functional, cell-based
[11] = system: MDA-MB-231; experiment: Induction of cell cycle arrest in human MDA-MB-231 cells assessed as downregulation of Cdc2 protein expression incubated for 48 hrs by Western blotting analysis; format: functional, cell-based
[12] = system: MDA-MB-231; experiment: Induction of cell cycle arrest in human MDA-MB-231 cells assessed as downregulation of Cdc25c protein expression incubated for 48 hrs by Western blotting analysis; format: functional, cell-based
[13] = system: MDA-MB-231; experiment: Induction of cell cycle arrest in human MDA-MB-231 cells assessed as downregulation of Cyclin B1 protein expression incubated for 48 hrs by Western blotting analysis; format: functional, cell-based
[14] = system: MDA-MB-231; experiment: Inhibition of NF-kappaB signalling pathway in human MDA-MB-231 cells assessed as downregulation of p65 phosphorylation at 0.5 to 2 uM incubated for 48 hrs by Western blotting analysis; format: cell-based; conditions: dose 0.5-2 µM
[15] = system: 4T1; experiment: Antitumor activity against mouse 4T1 cells implanted in Balb/c mouse assessed as inhibition of tumor volume at 10 mg/kg,ip administrated every two days for 20 days; format: functional, organism-based; conditions: time 20.0 day
[16] = system: 4T1; experiment: Antitumor activity against mouse 4T1 cells implanted in Balb/c mouse assessed as decrease in spleen weight at 10 mg/kg,ip administrated every two days for 20 days; format: functional, organism-based; conditions: time 20.0 day

## C=C1C(=O)O[C@H]2[C@H]1CC/C(COc1ccc(-c3cc(=S)ss3)cc1)=C\CC[C@@]1(C)O[C@@H]21
[1]
  IC50: 890 nM
[2]
  Activity: Dose-Dependent Effect
[3]
  Activity: 4.32%
[4]
  Activity: Dose-Dependent Effect
[5]
  Activity: Dose-Dependent Effect
[6]
  Activity: Dose-Dependent Effect
[7]
  Activity: Active
[8]
  Activity: Dose-Dependent Effect
[9]
  Activity: Dose-Dependent Effect
[10]
  Activity: Dose-Dependent Effect
[11]
  Activity: Dose-Dependent Effect
[12]
  Activity: Dose-Dependent Effect
[13]
  Activity: Dose-Dependent Effect
[14]
  inhibition: Active
[15]
  Activity: Active
[16]
  Activity: Active
